≈ marks a conversion by molar mass, not a printed value.
Columns and labels:
[1] = test system: HL-60; assay: Cytotoxicity against human HL60 cells after 72 hrs by MTT assay; type: functional; conditions: HL-60, 72 h, read-out: ED50
[2] = test system: P388; assay: Cytotoxicity against mouse P388 cells after 72 hrs by MTT assay; type: functional; conditions: P388, 72 h, read-out: ED50

Row | SMILES | EC50 [1] | EC50 [2]
1 | CC[C@H](C)[C@@H]1NC(=O)c2csc(n2)[C@@H](C(C)C)NC(=O)[C@H]2N=C(O[C@@H]2C)[C@H]([C@@H](C)CC)NC(=O)c2csc(n2)[C@@H](C(C)C)NC(=O)[C@H]2N=C1O[C@@H]2C [ASCIDIACYCLAMIDE] | 33.5 µg/mL (≈ 44.3 µM) | 10.5 µg/mL (≈ 13.9 µM)
2 | CC[C@H](C)[C@@H]1NC(=O)c2csc(n2)[C@@H](C(C)C)NC(=O)[C@H]2N=C(O[C@@H]2C)[C@H](c2ccccc2)NC(=O)c2csc(n2)[C@@H](C(C)C)NC(=O)[C@H]2N=C1O[C@@H]2C | 12.8 µg/mL (≈ 16.5 µM) | 12.4 µg/mL (≈ 16 µM)

Source: ChEMBL document CHEMBL1777789, “The square conformation of phenylglycine-incorporated ascidiacyclamide is stabilized by CH/π interactions between amino acid side chains” (2011)
